For experiment [1], the target named is Glutamate NMDA receptor (Rattus norvegicus) (UniProt P35439+Q00959+Q00960+Q00961+Q62645+Q8VHN2+Q9R1M7). As to conditions: Compound concentration 10.0 uM.
For experiment [2], the target named is GABA-A receptor; anion channel (Rattus norvegicus) (UniProt O09028+P15431+P18506+P18508+P19969+P20236+P23574+P23576+P28471+P28473+P30191+P62813+P63079+P63138+Q91ZM7+Q9ES14). Conditions: Compound concentration 10.0 uM.
Experiment [3] deals with Sodium-dependent dopamine transporter (Homo sapiens, UniProt Q01959). Briefly: Inhibition of Transporter, Dopamine (DAT) at compound concentration of 10.0 uM in the Eurofins-Panlabs radioligand binding assay (Eurofins_assay_220320). Set-up: ligand concentration 0.15 nM, non-specific ligand with concentration 10 uM Nomifensine, incubation time 3 h, incubation temperature 4 C.
Sequence of Sodium-dependent dopamine transporter (Q01959 whole entry): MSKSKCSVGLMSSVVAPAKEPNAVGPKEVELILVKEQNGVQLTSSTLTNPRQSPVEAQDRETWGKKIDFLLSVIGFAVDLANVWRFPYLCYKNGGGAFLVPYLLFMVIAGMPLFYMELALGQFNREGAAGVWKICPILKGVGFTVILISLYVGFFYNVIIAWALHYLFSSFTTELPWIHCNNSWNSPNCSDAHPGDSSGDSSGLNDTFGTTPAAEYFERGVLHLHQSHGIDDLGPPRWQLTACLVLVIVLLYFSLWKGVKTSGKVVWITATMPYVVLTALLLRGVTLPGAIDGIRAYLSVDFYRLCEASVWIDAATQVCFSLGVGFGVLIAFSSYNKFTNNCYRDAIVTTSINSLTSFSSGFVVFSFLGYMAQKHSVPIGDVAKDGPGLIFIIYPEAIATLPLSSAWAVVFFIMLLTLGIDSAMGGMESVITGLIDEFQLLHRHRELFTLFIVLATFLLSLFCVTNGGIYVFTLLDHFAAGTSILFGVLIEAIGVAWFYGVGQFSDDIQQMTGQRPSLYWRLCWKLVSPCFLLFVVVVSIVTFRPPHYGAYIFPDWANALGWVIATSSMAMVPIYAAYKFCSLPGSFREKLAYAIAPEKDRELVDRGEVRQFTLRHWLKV

For experiment [4], the target named is Glucocorticoid receptor (Homo sapiens) (UniProt P04150). Conditions: Compound concentration 10.0 uM.
Experiment [5] addresses Vasopressin V1a receptor (Homo sapiens) (UniProt P37288). Conditions: Compound concentration 10.0 uM.
The target in experiment [6] is Kappa-type opioid receptor (Homo sapiens) (UniProt P41145). As to conditions: Compound concentration 10.0 uM.
Sequence of Kappa-type opioid receptor (Homo sapiens) (P41145 whole entry): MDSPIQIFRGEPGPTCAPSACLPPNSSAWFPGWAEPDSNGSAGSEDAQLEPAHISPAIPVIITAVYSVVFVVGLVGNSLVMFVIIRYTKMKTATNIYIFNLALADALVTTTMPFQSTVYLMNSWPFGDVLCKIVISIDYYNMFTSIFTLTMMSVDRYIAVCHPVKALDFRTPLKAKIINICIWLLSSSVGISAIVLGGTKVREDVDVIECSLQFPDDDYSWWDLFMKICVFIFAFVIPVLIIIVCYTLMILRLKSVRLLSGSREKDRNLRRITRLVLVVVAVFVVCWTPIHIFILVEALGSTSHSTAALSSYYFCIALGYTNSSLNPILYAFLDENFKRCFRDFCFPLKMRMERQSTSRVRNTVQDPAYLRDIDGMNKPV
Experiment [7] deals with D(3) dopamine receptor (Homo sapiens) (UniProt P35462). Conditions: Compound concentration 10.0 uM.
Experiment [8] has as its target 5-hydroxytryptamine receptor 2A (Homo sapiens, UniProt P28223). Briefly: GPCRScan assay: inhibition of 5-HT2A. Set-up: radioligand conc. used [nm] 1.2 – 2.4, parental cells HEKT.
Experiment [9] concerns the target Adenosine receptor A1 (Homo sapiens) (UniProt P30542). Conditions: Compound concentration 10.0 uM.
Experiment [10] addresses Motilin receptor (Homo sapiens) (UniProt O43193). Conditions: Compound concentration 10.0 uM.
Experiment [11] is filed under the species Rattus norvegicus. Conditions: Compound concentration 10.0 uM.
The target in experiment [12] is Short transient receptor potential channel 3 (Homo sapiens, UniProt Q13507). Briefly: TRP selectivity screen (TRPC3).
Sequence of Short transient receptor potential channel 3 (Q13507 whole entry): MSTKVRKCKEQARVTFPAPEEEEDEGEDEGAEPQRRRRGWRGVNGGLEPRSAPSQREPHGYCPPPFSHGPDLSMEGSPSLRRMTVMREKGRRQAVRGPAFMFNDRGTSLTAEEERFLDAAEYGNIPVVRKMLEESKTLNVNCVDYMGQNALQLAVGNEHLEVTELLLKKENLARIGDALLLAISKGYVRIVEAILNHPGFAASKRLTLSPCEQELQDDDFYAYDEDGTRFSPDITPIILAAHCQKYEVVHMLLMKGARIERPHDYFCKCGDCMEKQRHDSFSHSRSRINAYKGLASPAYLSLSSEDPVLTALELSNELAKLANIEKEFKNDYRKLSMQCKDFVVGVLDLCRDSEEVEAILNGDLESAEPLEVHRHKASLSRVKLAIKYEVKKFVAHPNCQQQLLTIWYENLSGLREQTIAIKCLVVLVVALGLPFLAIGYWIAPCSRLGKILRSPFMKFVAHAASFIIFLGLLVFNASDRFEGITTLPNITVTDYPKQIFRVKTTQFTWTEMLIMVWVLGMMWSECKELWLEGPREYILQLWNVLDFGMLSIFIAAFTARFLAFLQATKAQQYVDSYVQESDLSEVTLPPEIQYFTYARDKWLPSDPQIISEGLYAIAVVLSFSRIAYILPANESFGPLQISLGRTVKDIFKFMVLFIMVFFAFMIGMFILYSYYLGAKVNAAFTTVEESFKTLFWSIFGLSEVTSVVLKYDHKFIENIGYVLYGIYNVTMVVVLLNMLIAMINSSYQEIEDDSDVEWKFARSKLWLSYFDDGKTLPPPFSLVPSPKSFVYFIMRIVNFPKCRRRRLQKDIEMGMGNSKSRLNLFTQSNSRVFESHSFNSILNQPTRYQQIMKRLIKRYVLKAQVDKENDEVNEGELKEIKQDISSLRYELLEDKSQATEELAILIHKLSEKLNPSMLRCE
The target of experiment [13] is 5-hydroxytryptamine receptor 2B (Homo sapiens) (UniProt P41595). As to conditions: Compound concentration 10.0 uM.
Sequence of 5-hydroxytryptamine receptor 2B (Homo sapiens) (P41595 whole entry): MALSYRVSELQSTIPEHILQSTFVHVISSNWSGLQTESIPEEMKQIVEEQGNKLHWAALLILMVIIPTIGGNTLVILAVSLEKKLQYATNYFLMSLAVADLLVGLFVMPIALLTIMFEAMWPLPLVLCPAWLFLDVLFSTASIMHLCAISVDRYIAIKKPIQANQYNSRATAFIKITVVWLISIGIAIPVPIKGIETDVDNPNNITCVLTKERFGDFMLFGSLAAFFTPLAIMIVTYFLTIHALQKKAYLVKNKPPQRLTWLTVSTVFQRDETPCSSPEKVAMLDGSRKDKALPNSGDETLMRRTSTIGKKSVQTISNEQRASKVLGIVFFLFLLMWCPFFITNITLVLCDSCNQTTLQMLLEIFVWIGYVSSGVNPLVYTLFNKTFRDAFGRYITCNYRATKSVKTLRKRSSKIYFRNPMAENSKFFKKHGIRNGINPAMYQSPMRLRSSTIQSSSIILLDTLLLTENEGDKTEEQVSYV
Experiment [14] concerns the target Adenosine receptor A2a (Homo sapiens) (UniProt P29274). Conditions: Compound concentration 10.0 uM.
Experiment [15] is described as follows: FLIPR Ca2+ assay (monkey TRPA1).
In experiment [16] the target is Purinergic P2Y (Rattus norvegicus) (UniProt O35811+Q9EPX4+P49651+Q63371+P41232+O35881+Q6GUG4). Conditions: Compound concentration 10.0 uM.
For experiment [17], the target named is Transient receptor potential cation channel subfamily A member 1 (Homo sapiens, UniProt O75762). Briefly: Ephys (human TRPA1).
Experiment [18] has as its target Endothelin-1 receptor (Homo sapiens) (UniProt P25101). As to conditions: Compound concentration 10.0 uM.
Experiment [19] deals with Glutamate receptor 2 (Homo sapiens) (UniProt P42262). As to conditions: Rattus norvegicus; Compound concentration 10.0 uM.
For experiment [20], the target named is Beta-3 adrenergic receptor (Homo sapiens) (UniProt P13945). Conditions: Compound concentration 10.0 uM.
Sequence of Beta-3 adrenergic receptor (Homo sapiens) (P13945 whole entry, looked up): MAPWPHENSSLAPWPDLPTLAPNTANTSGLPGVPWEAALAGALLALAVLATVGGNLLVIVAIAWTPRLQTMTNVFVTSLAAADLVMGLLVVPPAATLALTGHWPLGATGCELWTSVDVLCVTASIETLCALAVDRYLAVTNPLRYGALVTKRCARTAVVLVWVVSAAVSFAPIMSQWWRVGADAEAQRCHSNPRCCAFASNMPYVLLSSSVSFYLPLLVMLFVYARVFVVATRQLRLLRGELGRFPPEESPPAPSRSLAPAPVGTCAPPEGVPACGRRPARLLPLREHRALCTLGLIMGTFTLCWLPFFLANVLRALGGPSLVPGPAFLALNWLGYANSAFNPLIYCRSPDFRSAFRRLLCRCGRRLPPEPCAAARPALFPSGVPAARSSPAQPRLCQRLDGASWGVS
For experiment [21], the target named is Alpha-2B adrenergic receptor (Homo sapiens) (UniProt P18089). Conditions: Compound concentration 10.0 uM.
Sequence of Alpha-2B adrenergic receptor (Homo sapiens) (P18089 whole entry): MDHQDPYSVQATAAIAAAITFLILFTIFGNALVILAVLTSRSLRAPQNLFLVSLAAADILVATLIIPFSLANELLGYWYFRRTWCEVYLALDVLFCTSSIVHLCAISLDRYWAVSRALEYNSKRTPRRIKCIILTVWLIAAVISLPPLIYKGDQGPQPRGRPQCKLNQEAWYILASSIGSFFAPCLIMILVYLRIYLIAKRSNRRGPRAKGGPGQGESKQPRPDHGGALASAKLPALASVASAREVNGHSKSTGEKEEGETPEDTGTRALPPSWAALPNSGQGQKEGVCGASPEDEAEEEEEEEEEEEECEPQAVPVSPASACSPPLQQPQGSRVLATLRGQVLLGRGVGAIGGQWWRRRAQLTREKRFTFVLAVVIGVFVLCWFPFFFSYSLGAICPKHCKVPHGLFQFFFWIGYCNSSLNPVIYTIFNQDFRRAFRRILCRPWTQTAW
The target in experiment [22] is Histamine H3 receptor (Homo sapiens) (UniProt Q9Y5N1). Conditions: Compound concentration 10.0 uM.

The source made the active and inactive calls. The calls are words filed in the database; no cut-off is given here.

Consider two compounds from ChEMBL document CHEMBL4507328, “Data for DCP probe BAY-390” (2021).

Sequence of Endothelin-1 receptor (Homo sapiens) (P25101 whole entry): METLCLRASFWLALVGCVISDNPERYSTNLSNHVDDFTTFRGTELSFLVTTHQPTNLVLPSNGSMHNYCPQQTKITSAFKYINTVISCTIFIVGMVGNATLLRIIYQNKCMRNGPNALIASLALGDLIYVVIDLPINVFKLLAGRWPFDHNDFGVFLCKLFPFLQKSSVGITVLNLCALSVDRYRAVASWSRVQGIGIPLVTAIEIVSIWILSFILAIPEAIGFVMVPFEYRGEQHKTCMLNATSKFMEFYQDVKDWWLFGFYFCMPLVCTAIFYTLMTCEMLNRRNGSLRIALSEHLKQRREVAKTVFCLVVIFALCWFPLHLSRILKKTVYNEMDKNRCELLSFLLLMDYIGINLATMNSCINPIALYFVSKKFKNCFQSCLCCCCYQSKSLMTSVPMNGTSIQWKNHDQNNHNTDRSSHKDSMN
Sequence of Adenosine receptor A1 (Homo sapiens) (P30542 whole entry): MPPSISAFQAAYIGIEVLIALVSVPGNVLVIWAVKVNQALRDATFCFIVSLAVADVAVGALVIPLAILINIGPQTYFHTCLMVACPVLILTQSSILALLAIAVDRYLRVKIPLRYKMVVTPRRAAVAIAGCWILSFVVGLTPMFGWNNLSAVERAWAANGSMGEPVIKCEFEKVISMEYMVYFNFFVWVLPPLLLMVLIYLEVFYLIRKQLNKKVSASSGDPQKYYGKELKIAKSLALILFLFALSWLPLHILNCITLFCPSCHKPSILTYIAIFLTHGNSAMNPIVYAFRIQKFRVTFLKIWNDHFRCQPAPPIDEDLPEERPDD
Sequence of Motilin receptor (Homo sapiens) (O43193 whole entry): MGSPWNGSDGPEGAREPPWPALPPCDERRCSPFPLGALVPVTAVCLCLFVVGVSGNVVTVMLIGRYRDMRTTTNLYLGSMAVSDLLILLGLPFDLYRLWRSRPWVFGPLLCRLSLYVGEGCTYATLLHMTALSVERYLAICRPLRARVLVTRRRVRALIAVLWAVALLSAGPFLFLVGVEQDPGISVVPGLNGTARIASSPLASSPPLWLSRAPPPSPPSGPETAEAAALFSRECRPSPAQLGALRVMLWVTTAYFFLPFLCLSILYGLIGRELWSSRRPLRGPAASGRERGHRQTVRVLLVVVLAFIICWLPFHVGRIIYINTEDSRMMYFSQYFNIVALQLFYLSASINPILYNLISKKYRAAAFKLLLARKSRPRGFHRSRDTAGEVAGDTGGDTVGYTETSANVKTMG
Sequence of Adenosine receptor A2a (Homo sapiens) (P29274 whole entry): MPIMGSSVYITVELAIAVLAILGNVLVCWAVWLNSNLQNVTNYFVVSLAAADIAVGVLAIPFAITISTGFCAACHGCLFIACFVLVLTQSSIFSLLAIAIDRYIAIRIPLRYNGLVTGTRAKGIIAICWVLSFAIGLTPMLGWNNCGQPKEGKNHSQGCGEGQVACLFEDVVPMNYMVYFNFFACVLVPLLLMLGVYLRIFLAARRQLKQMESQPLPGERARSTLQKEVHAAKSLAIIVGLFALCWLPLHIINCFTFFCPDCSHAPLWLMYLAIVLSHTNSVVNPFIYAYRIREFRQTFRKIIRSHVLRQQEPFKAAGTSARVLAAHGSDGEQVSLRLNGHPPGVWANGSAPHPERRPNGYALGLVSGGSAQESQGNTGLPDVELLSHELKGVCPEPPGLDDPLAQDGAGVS

For the compound `O[C@]1(C(F)(F)F)CCCC[C@H]1Nc1ccc(F)cc1` [BAY-390], the inhibition in [1] is 9%; in [2] it was 19.7%; in [4], 4%; in [5], -7%; in experiment [6] it was 7%; in [7], 9%. For the same compound, the inhibition is 18% in experiment [9]; 13% in experiment [10]; -5% in experiment [11]; -4% in [13]; 3% in [14]; -6% in experiment [16]. In addition, the inhibition is 7% in experiment [18], 8% in experiment [19] and 1% in experiment [20]. Besides, the IC50 is 1200 nM in experiment [3], > 25000 nM (not active) in experiment [12], 19 nM (active) in experiment [15] and 82 nM (active) in experiment [17]. Further, the inhibition constant Ki came out at 940 nM in [3] and 2580 nM in experiment [8].

For the compound `COc1cc(N[C@@H]2CCCC[C@]2(O)C(F)(F)F)ccc1F` [BAY-9897], the inhibition in experiment [21] was -0.18%; in experiment [22], -2.34%.
